Data as given in patent publication US20260356819A1, “OXOISOINDOLINYL-SUBSTITUTED […] DERIVATIVE AND USE THEREOF” (GLUETACS THERAPEUTICS (SHANGHAI) CO., LTD., priority 2023, published 2026).

Assays:
Format in all cases: cell-based
Details in all cases: compounds at 50 nM and 500 nM
IKZF2 = molecular target: T1, IKZF2 (Homo sapiens, UniProt Q96SW2+Q9UKS7); test: Western blot degradation of IKZF2 in hPBMCs (24 h)
T1 construct: The supernatant was aspirated as the extracted total cell protein; endogenous in cells; host or cells: human peripheral blood mononuclear cells (hPBMCs)
Procedure, shortened: (§1)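 PBMC Western blot, 24 h treatment; test levels 50 nM and 500 nM. Band density ÷ internal control, normalised → % remaining; degradation (%) = 1 − remaining.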

IKZF3 = molecular target: T2, IKZF3 (Homo sapiens, UniProt Q96SW2+Q9UKT9); test: Western blot degradation of IKZF3 in hPBMCs (24 h)
T2 construct: The supernatant was aspirated as the extracted total cell protein; endogenous in cells; host or cells: human peripheral blood mononuclear cells (hPBMCs)
Procedure, shortened: as §1

GSPT1 = molecular target: T3, GSPT1 (Homo sapiens, UniProt P15170+Q96SW2); test: Western blot degradation of GSPT1 in hPBMCs (24 h)
T3 construct: The supernatant was aspirated as the extracted total cell protein; endogenous in cells; host or cells: human peripheral blood mononuclear cells (hPBMCs)
Procedure, shortened: as §1

WEE1 = molecular target: T4, WEE1 (Homo sapiens, UniProt P30291+Q96SW2); test: Western blot degradation of WEE1 in hPBMCs (24 h)
T4 construct: The supernatant was aspirated as the extracted total cell protein; endogenous in cells; host or cells: human peripheral blood mononuclear cells (hPBMCs)
Procedure, shortened: as §1

CK1α = molecular target: T5, CK1α (Homo sapiens, UniProt P48729+Q96SW2); test: Western blot degradation of CK1α in hPBMCs (24 h)
T5 construct: The supernatant was aspirated as the extracted total cell protein; endogenous in cells; host or cells: human peripheral blood mononuclear cells (hPBMCs)
Procedure, shortened: as §1

IKZF1 = molecular target: T6, IKZF1 (Homo sapiens, UniProt Q13422+Q96SW2); test: Western blot degradation of IKZF1 in hPBMCs (24 h)
T6 construct: The supernatant was aspirated as the extracted total cell protein; endogenous in cells; host or cells: human peripheral blood mononuclear cells (hPBMCs)
Procedure, shortened: as §1

T6 sequence (Q13422 whole entry): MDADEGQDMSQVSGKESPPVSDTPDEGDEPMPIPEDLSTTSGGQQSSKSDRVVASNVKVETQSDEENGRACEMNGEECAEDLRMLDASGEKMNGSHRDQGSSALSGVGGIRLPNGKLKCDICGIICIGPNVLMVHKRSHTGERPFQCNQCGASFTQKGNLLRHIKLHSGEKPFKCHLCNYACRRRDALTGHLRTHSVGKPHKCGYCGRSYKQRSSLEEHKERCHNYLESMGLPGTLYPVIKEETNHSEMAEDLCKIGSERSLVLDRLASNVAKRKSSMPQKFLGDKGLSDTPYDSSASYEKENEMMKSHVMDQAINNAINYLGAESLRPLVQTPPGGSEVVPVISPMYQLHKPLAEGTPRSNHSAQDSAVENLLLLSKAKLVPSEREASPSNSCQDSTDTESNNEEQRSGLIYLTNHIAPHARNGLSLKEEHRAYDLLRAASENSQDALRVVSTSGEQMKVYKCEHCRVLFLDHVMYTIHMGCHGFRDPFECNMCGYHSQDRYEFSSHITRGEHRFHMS
T6 sequence (Q96SW2 whole entry): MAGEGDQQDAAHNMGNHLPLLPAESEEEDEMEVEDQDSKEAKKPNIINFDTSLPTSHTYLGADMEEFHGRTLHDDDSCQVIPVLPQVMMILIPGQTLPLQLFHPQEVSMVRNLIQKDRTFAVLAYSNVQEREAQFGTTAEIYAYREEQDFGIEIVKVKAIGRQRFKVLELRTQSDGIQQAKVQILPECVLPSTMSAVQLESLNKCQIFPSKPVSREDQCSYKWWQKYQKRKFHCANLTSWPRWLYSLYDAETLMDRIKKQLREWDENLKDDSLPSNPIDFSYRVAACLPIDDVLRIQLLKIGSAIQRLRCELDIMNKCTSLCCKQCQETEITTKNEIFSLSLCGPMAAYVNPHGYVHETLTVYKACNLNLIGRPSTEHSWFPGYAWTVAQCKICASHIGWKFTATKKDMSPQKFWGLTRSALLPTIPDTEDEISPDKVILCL
T6 sequence (Q16531 whole entry partner): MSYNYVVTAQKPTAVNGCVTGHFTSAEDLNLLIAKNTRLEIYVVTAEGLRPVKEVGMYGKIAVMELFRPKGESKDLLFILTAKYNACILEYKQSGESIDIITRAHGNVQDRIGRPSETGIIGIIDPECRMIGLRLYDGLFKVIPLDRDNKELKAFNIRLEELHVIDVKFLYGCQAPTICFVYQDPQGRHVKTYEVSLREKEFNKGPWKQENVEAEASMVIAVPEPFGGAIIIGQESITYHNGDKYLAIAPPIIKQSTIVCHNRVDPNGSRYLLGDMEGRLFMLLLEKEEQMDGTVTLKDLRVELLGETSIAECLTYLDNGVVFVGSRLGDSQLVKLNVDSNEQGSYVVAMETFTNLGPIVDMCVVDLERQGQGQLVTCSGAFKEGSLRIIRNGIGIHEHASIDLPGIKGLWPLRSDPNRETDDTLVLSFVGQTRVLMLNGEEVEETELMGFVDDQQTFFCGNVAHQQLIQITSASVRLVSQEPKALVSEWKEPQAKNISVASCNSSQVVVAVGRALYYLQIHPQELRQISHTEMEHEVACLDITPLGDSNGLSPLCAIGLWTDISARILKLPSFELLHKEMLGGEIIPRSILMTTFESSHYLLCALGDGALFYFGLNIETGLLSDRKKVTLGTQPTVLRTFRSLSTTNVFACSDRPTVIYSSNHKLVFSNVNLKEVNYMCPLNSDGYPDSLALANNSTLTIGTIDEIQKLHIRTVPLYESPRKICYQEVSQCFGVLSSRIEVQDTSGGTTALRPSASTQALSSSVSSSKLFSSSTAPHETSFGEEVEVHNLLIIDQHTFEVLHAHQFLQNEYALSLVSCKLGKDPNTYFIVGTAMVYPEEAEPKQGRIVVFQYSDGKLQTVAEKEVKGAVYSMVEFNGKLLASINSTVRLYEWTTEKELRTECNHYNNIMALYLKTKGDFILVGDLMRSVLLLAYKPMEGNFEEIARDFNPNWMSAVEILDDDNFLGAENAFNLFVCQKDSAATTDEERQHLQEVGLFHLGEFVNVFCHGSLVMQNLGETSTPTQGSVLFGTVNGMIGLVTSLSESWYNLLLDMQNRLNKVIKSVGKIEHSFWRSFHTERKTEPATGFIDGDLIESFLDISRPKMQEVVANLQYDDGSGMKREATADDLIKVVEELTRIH
T3 sequence (P15170 whole entry): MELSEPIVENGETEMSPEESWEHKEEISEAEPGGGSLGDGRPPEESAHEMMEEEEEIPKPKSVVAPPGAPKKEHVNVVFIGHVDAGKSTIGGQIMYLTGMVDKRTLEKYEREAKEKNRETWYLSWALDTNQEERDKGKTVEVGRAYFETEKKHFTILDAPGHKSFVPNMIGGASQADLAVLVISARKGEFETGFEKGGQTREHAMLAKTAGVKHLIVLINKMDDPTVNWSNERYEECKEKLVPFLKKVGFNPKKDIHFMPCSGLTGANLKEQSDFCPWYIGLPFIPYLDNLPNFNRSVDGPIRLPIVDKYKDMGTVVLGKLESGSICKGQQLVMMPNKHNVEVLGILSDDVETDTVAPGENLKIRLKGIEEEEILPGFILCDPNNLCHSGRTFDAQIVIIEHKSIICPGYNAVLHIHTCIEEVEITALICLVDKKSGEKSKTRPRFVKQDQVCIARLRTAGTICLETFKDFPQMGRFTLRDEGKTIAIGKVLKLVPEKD
T3 sequence (Q96SW2 whole entry): as the sequence (Q96SW2 whole entry) above
T3 sequence (Q16531 whole entry partner): as the sequence (Q16531 whole entry partner) above
T2 sequence (Q9UKT9 whole entry): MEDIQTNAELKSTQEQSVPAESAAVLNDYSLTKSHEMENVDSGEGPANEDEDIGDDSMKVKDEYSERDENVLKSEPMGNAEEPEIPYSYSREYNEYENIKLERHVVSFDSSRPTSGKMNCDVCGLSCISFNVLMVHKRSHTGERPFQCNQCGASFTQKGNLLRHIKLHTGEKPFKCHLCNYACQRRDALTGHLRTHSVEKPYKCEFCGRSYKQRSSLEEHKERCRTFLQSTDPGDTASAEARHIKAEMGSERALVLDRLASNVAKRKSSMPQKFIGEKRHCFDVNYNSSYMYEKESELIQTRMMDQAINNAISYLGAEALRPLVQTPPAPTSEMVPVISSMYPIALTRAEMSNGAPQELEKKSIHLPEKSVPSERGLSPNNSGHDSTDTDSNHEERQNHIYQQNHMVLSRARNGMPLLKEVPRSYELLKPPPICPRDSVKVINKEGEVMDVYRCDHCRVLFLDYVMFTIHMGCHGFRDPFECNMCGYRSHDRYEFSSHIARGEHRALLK
T2 sequence (Q96SW2 whole entry): as the sequence (Q96SW2 whole entry) above
T2 sequence (Q16531 whole entry partner): as the sequence (Q16531 whole entry partner) above
T5 sequence (P48729 whole entry): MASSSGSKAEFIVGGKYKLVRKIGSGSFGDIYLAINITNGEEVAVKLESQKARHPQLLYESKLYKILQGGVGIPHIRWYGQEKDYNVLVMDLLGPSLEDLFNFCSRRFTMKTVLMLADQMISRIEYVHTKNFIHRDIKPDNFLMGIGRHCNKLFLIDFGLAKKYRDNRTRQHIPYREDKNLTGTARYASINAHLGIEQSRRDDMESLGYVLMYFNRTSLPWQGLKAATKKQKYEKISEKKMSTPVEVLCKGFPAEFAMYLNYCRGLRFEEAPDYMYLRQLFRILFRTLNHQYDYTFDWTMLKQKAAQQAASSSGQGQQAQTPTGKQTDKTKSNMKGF
T5 sequence (Q96SW2 whole entry): as the sequence (Q96SW2 whole entry) above
T5 sequence (Q16531 whole entry partner): as the sequence (Q16531 whole entry partner) above
T1 sequence (Q9UKS7 whole entry): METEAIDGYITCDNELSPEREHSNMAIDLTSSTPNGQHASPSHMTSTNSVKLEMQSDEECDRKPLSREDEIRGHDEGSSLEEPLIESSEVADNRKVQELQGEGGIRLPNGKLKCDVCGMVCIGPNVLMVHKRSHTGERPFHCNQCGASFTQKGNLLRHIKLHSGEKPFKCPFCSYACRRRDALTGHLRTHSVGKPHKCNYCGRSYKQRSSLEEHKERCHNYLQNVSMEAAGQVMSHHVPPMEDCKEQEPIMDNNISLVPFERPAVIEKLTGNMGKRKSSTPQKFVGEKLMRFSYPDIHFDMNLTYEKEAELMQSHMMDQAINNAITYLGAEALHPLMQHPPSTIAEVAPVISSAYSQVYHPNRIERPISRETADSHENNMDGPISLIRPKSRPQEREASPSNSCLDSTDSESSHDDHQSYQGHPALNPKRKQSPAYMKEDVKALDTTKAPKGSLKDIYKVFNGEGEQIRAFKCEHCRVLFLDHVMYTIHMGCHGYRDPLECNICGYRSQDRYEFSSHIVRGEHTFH
T1 sequence (Q96SW2 whole entry): as the sequence (Q96SW2 whole entry) above
T1 sequence (Q16531 whole entry partner): as the sequence (Q16531 whole entry partner) above

SMILES | IKZF2 substrate protein remaining % (IKZF2) | IKZF3 substrate protein remaining % (IKZF3) | GSPT1 substrate protein remaining % (GSPT1) | WEE1 substrate protein remaining % (WEE1) | CK1α substrate protein remaining % (CK1α) | IKZF1 substrate protein remaining % (IKZF1)
O=C1CCN(N2C(=O)c3ccc(CN4CC=C(c5ncnc6sc(-c7ccccc7)cc56)CC4)cc3C2=O)C(=O)N1 [GT-08430, 2-(2,4-dioxotetrahydropyrimidin-1(2H)-yl)-5-((4-(6-phenylthieno[2,3-d]pyrimidin-4-yl)-3,6-dihydropyridin-1(2H)-yl)methyl)isoindoline-1,3-dione] | B (80%< substrate protein remaining % ≤100%) | B (80%< substrate protein remaining % ≤100%) | B (80%< substrate protein remaining % ≤100%) | A (0% ≤ substrate protein remaining % ≤80%) | B (80%< substrate protein remaining % ≤100%) | B (80%< substrate protein remaining % ≤100%)
O=C1CCN(N2C(=O)c3ccc(CN4CC=C(c5ncnc6scc(-c7ccccc7)c56)CC4)cc3C2=O)C(=O)N1 [GT-08431, 2-(2,4-dioxotetrahydropyrimidin-1(2H)-yl)-5-((4-(5-phenylthieno[2,3-d]pyrimidin-4-yl)-3,6-dihydropyridin-1(2H)-yl)methyl)isoindoline-1,3-dione] | A (0% ≤ substrate protein remaining % ≤80%) | B (80%< substrate protein remaining % ≤100%) | B (80%< substrate protein remaining % ≤100%) | A (0% ≤ substrate protein remaining % ≤80%) | B (80%< substrate protein remaining % ≤100%) | B (80%< substrate protein remaining % ≤100%)
Cc1nc(C2=CCN(Cc3ccc4c(c3)C(=O)N(N3CCC(=O)NC3=O)C4=O)CC2)c2c3c(sc2n1)CCCC3 [GT-08432, 2-(2,4-dioxotetrahydropyrimidin-1(2H)-yl)-5-((4-(2-methyl-5,6,7,8-tetrahydrobenzo[4,5]thieno[2,3-d]pyrimidin-4-yl)-3,6-dihydropyridin-1(2H)-yl)methyl)isoindoline-1,3-dione] | B (80%< substrate protein remaining % ≤100%) | A (0% ≤ substrate protein remaining % ≤80%) | A (0% ≤ substrate protein remaining % ≤80%) | B (80%< substrate protein remaining % ≤100%) | A (0% ≤ substrate protein remaining % ≤80%) | B (80%< substrate protein remaining % ≤100%)
O=C1CCN(N2C(=O)c3ccc(CN4CC=C(c5ncnc6sc7c(c56)CCCC7)CC4)cc3C2=O)C(=O)N1 [GT-08433, 2-(2,4-dioxotetrahydropyrimidin-1(2H)-yl)-5-((4-(5,6,7,8-tetrahydrobenzo[4,5]thieno[2,3-d]pyrimidin-4-yl)-3,6-dihydropyridin-1(2H)-yl)methyl)isoindoline-1,3-dione] | B (80%< substrate protein remaining % ≤100%) | A (0% ≤ substrate protein remaining % ≤80%) | A (0% ≤ substrate protein remaining % ≤80%) | B (80%< substrate protein remaining % ≤100%) | A (0% ≤ substrate protein remaining % ≤80%) | B (80%< substrate protein remaining % ≤100%)
O=C1CCN(N2C(=O)c3ccc(CN4CC=C(c5ncnc6sc7c(c56)CCC7)CC4)cc3C2=O)C(=O)N1 [GT-08434, 5-((4-(6,7-dihydro-5H-cyclopenta[4,5]thieno[2,3-d]pyrimidin-4-yl)-3,6-dihydropyridin-1(2H)-yl)methyl)-2-(2,4-dioxotetrahydropyrimidin-1(2H)-yl)isoindoline-1,3-dione] | A (0% ≤ substrate protein remaining % ≤80%) | A (0% ≤ substrate protein remaining % ≤80%) | A (0% ≤ substrate protein remaining % ≤80%) | B (80%< substrate protein remaining % ≤100%) | A (0% ≤ substrate protein remaining % ≤80%) | A (0% ≤ substrate protein remaining % ≤80%)
Cc1nc(C2=CCN(Cc3ccc4c(c3)C(=O)N(N3CCC(=O)NC3=O)C4=O)CC2)c2c3c(sc2n1)CCC3 [GT-08435, 2-(2,4-dioxotetrahydropyrimidin-1(2H)-yl)-5-((4-(2-methyl-6,7-dihydro-5H-cyclopenta[4,5]thieno[2,3-d]pyrimidin-4-yl)-3,6-dihydropyridin-1(2H)-yl)methyl)isoindoline-1,3-dione] | B (80%< substrate protein remaining % ≤100%) | A (0% ≤ substrate protein remaining % ≤80%) | A (0% ≤ substrate protein remaining % ≤80%) | A (0% ≤ substrate protein remaining % ≤80%) | B (80%< substrate protein remaining % ≤100%) | A (0% ≤ substrate protein remaining % ≤80%)
Cc1nc(C2=CCN(Cc3ccc4c(c3)CN(N3CCC(=O)NC3=O)C4=O)CC2)c2c3c(sc2n1)CCC3 [GT-08437, 1-(5-((4-(2-methyl-6,7-dihydro-5H-cyclopenta[4,5]thieno[2,3-d]pyrimidin-4-yl)-3,6-dihydropyridin-1(2H)-yl)methyl)-1-oxoisoindolin-2-yl)dihydropyrimidine-2,4(1H,3H)-dione] | B (80%< substrate protein remaining % ≤100%) | A (0% ≤ substrate protein remaining % ≤80%) | A (0% ≤ substrate protein remaining % ≤80%) | A (0% ≤ substrate protein remaining % ≤80%) | B (80%< substrate protein remaining % ≤100%) | A (0% ≤ substrate protein remaining % ≤80%)
O=C1CCN(N2Cc3cc(CN4CC=C(c5ncc6ccsc6n5)CC4)ccc3C2=O)C(=O)N1 [GT-08438, 1-(1-oxo-5-((4-(thieno[2,3-d]pyrimidin-2-yl)-3,6-dihydropyridin-1(2H)-yl)methyl)isoindolin-2-yl)dihydropyrimidine-2,4(1H,3H)-dione] | B (80%< substrate protein remaining % ≤100%) | A (0% ≤ substrate protein remaining % ≤80%) | A (0% ≤ substrate protein remaining % ≤80%) | A (0% ≤ substrate protein remaining % ≤80%) | B (80%< substrate protein remaining % ≤100%) | A (0% ≤ substrate protein remaining % ≤80%)
O=C1CCN(N2Cc3cc(CN4CCN(c5nc(Cl)nc6c5SCC6)CC4)ccc3C2=O)C(=O)N1 [GT-08439, 1-(5-((4-(2-chloro-6,7-dihydrothieno[3,2-d]pyrimidin-4-yl)piperazin-1-yl)methyl)-1-oxoisoindolin-2-yl)dihydropyrimidine-2,4(1H,3H)-dione] | B (80%< substrate protein remaining % ≤100%) | A (0% ≤ substrate protein remaining % ≤80%) | A (0% ≤ substrate protein remaining % ≤80%) | A (0% ≤ substrate protein remaining % ≤80%) | B (80%< substrate protein remaining % ≤100%) | A (0% ≤ substrate protein remaining % ≤80%)
O=C1CCN(N2Cc3cc(CN4CCN(c5ncnc6ccsc56)CC4)ccc3C2=O)C(=O)N1 [GT-08443, 1-(1-oxo-5-((4-(thieno[3,2-d]pyrimidin-4-yl)piperazin-1-yl)methyl)isoindolin-2-yl)dihydropyrimidine-2,4(1H,3H)-dione] | B (80%< substrate protein remaining % ≤100%) | B (80%< substrate protein remaining % ≤100%) | B (80%< substrate protein remaining % ≤100%) | A (0% ≤ substrate protein remaining % ≤80%) | B (80%< substrate protein remaining % ≤100%) | B (80%< substrate protein remaining % ≤100%)
O=C1CCN(N2Cc3cc(CN4CCN(c5nc(Cl)nc6ccsc56)CC4)ccc3C2=O)C(=O)N1 [GT-08444, 1-(5-((4-(2-chlorothieno[3,2-d]pyrimidin-4-yl)piperazin-1-yl)methyl)-1-oxoisoindolin-2-yl)dihydropyrimidine-2,4(1H,3H)-dione] | B (80%< substrate protein remaining % ≤100%) | B (80%< substrate protein remaining % ≤100%) | B (80%< substrate protein remaining % ≤100%) | A (0% ≤ substrate protein remaining % ≤80%) | B (80%< substrate protein remaining % ≤100%) | B (80%< substrate protein remaining % ≤100%)
O=C1CCN(N2Cc3cc(CN4CCN(c5nc(N6CCOCC6)nc6ccsc56)CC4)ccc3C2=O)C(=O)N1 [GT-08446, 1-(5-((4-(2-morpholinothieno[3,2-d]pyrimidin-4-yl)piperazin-1-yl)methyl)-1-oxoisoindolin-2-yl)dihydropyrimidine-2,4(1H,3H)-dione] | B (80%< substrate protein remaining % ≤100%) | A (0% ≤ substrate protein remaining % ≤80%) | A (0% ≤ substrate protein remaining % ≤80%) | B (80%< substrate protein remaining % ≤100%) | B (80%< substrate protein remaining % ≤100%) | B (80%< substrate protein remaining % ≤100%)
